Drawing on patent US9765083B2, “Method for the synthesis of irinotecan” (Synbias Pharma AG, priority 2013, dated 2017), this text covers solubility for one molecule.

A short description of this data set: solubility of 7-des-ethyl-irinotecan compared with camptothecin and 10-hydroxycamptothecin. The note with it: as compared to camptothecin and 10-hydroxycamptothecin; solvent not stated. The format is physicochemical.

Consider `CC[C@@]1(O)C(=O)OCc2c1cc1n(c2=O)Cc2cc3cc(OC(=O)N4CCC(N5CCCCC5)CC4)ccc3nc2-1` [7-des-ethyl-irinotecan, 10-[4-(1-piperidino)-1-piperidino]carbonyloxycamptothecin], for which the solubility entry is given as “significantly better solubility”.
